This is an account of results in US20250213500A1, “PHARMACEUTICAL COMPOSITION FOR IMPROVING LIFE QUALITY OF ELDERLY PEOPLE ON BASIS OF VITAMIN K2, PREPARATION METHOD THEREFOR AND USE THEREOF” (priority 2022, published 2025).

This experiment concerns tumor cells. Description: Tumor inhibition in mice subcutaneously inoculated with tumor cells. In kind it is in vivo. The conditions noted are these: 10 mg/kg once daily for 15 days; tumor weight vs saline group. Here is the method:
A total of 140 mice (equal number of males and females), approximately 3 months old, with a weight range of 15.41-18.47 g, were selected. Mice were subcutaneously inoculated with tumor cells, and their blood samples were drawn 24 hours later to test tumor markers and confirm the success of the mouse model establishment. A total of 126 mice confirmed with cancer (equal number of males and females) were selected and randomly divided into 6 groups, with 21 mice in each group (roughly equal number of males and females). These 6 groups were designated as Experimental Group 1, Experimental Group 2, Experimental Group 3, Experimental Group 4, Experimental Group 5, and Experimental Group 6. […] Tumor inhibition rate was calculated as follows: Tumor Inhibition Rate=(Average Tumor Weight in Control Group−Average Tumor Weight in Experimental Group)/Average Tumor Weight in Control Group.

For `CC(C)=CCC/C(C)=C/CC/C(C)=C/CC/C(C)=C/CC/C(C)=C/CC/C(C)=C/CC/C(C)=C/CC1=C(C)C(=O)c2ccccc2C1=O` [MK-7, vitamin K2 (MK-7)], the “Tumor Inhibition Rate” value was found to be 35.67%.

With `CCCc1nn(C)c2c(=O)[nH]c(-c3cc(S(=O)(=O)N4CCN(C)CC4)ccc3OCC)nc12` [sildenafil], the “Tumor Inhibition Rate” value is on record as 40.55%.
